Molecules are shown by their SMILES. “And” between values parts separate entries of the source, which are not always exact repeats. Equal entries are not always repeated. The source made the active and inactive calls.

One assay addresses Paired box protein Pax-8 (Homo sapiens, UniProt Q06710). The assay is described as follows: PAX8 transcriptional activity inhibition in RMG-I – RMG-I cells, luciferase, cherry-pick, dose response (AID 687027).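 Also: luciferase reporter driven by Pax8 target thyroperoxidase promoter measured by SteadyGlo luminescence.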 The class given is functional, cell-based.
Assay [1] in a line: A2780 cell killing – plate reader, dry powder samples, cytotoxicity control, dose response (AID 743046). Format: functional, cell-based.
A short description of assay [2]: OVCAR8 cell viability loss – plate reader, dry powder samples, PAX8 project, dose response (AID 743197). The class given is functional, cell-based. The note with it: OVCAR-8.
The nature of assay [3]: OVCAR-3 cell viability loss – plate reader, dry powder samples, PAX8 inhibitor project, dose response (AID 743044). Format: functional, cell-based.
Assay [4] can be described thus: COV434 cell viability loss – plate reader, dry powder, SA7, cytotoxicity control for PAX8 inhibitor project, dose response (AID 743145). The class given is functional, cell-based.
The nature of assay [5]: PAX5 cellular inhibition readout – cell-based, plate reader, dry powder samples, selectivity assay for PAX8 inhibitor project, dose response (AID 743047).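 Also: HEK293 cells carrying a Pax5 driven CD19 promoter luciferase reporter; potency of inhibitors that lower reporter luminescence.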 Format: functional.
Assay [6] in a line: toxicity toward immortalized ovarian surface epithelium – cell-based, plate reader, dry powder samples, cytotoxicity control for PAX8 inhibitor project, dose response (AID 743045). Format: functional.
The nature of assay [7]: PAX8-dependent cell viability loss – plate reader, dry powder, dose response (AID 743049). The class given is functional, cell-based.
Assay [8] can be described thus: OV-90 cell viability loss – plate reader, dry powder, SA8, PAX8 inhibitor project, dose response (AID 743149). Format: functional, cell-based.
Assay [9] is described as follows: inhibitors acting on PAX2 in cells – cell-based, plate reader, dry powder samples, selectivity assay for PAX8 inhibitor project, dose response (AID 743048).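 Also: HEK293 cells carrying a WT1 promoter luciferase reporter driven by expressed Pax2; potency is for inhibition of Pax2 driven reporter signal.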 Format: functional.
A short description of assay [10]: IGROV1 cell killing – plate reader, dry powder samples, PAX8 inhibitor project, dose response (AID 743043). Format: functional, cell-based. Conditions: IGROV-1.
The nature of assay [11]: HepG2 hepatoma cell viability loss – plate reader, dry powder, cytotoxicity control, dose response (AID 651947). The class given is functional, cell-based.
The nature of assay [12]: Reduced DLD-1 viability, concentration-response, CellTiter-Glo luminescence (AID 1117352). The class given is functional. (In ATP-based viability assays light output follows the ATP content of the culture.)
The nature of assay [13]: cytotoxicity toward HT-29 cells – cell-based, CellTiter-Glo luminescence, IC50, dose response (AID 1117330). The class given is functional.
Assay [14] is described as follows: CellTiter-Glo luminescence survival assay, SW480 colon tumor line, concentration-response curve, half-maximal inhibitory concentration (AID 1117338). The class given is functional.
The nature of assay [15]: RKO cell viability reduction, dose response, CellTiter-Glo luminescence (AID 1117322). Format: functional.
Assay [16] can be described thus: SNU-C1 cell viability reduction, dose response, CellTiter-Glo luminescence (AID 1117323). The class given is functional, cell-based.
Assay [17] can be described thus: cytotoxicity toward HCT116 cells – cell-based, CellTiter-Glo luminescence, IC50, dose response (AID 1117332). The class given is functional. The note with it: HCT-116.
Assay [18] can be described thus: HCT116 cell viability decrease, GSK3B pretreatment – CellTiter-Glo, IC50, dose response (AID 1117339). Format: functional. Conditions: HCT-116.
Assay [19] can be described thus: cytotoxicity toward Colo320 cells – cell-based, CellTiter-Glo luminescence, IC50, dose response (AID 1117334). Format: functional. The note with it: COLO 320.
Assay [20] can be described thus: anti-trypanosomal activity in BESM host cells – imaging, CA-I/72 strain, bovine embryo skeletal muscle, dry powder, dose response (AID 651885). Format: functional, cell-based.
Assay [21] is described as follows: T. cruzi growth inhibition in host cells, dose response, cell-based, plate reader, dry powder, set 2 (AID 652275). The class given is functional.
Assay [22] in a line: Trypanosoma cruzi replication inhibitors in host cells – cell-based, plate reader, dry powder samples, dose response (AID 651845). Format: functional.
Assay [23] deals with HEK293. The assay is described as follows: optical interference in Abeta FP readout, dose response, artefact control for IDE activator project, biochemical, fluorescence polarization (AID 588442). Conditions: Homo sapiens. The class given is functional, cell-based. In general terms: In fluorescence polarisation assays a small probe gives low polarisation when free and higher when bound to something large.

Assay [24] concerns the target Glutathione-S-transferase (Schistosoma japonicum, UniProt Q26513). The assay is described as follows: GST-antibody interaction or FRET quenching – biochemical, TR-FRET, artefact control for Vif-APOBEC3G degradation inhibitor project, dose response (AID 1117362). The class given is functional. For orientation: TR-FRET usually uses a lanthanide donor and a delayed reading to cut background.

The next assay has as its target Nonstructural protein 1 (Influenza A virus, UniProt Q194T2). Format: functional, Influenza A virus (A/California/07/2009(H1N1)).
Assay [25] addresses T1, Insulin-degrading enzyme (Homo sapiens, UniProt P14735).
T1 sequence (P14735 whole entry): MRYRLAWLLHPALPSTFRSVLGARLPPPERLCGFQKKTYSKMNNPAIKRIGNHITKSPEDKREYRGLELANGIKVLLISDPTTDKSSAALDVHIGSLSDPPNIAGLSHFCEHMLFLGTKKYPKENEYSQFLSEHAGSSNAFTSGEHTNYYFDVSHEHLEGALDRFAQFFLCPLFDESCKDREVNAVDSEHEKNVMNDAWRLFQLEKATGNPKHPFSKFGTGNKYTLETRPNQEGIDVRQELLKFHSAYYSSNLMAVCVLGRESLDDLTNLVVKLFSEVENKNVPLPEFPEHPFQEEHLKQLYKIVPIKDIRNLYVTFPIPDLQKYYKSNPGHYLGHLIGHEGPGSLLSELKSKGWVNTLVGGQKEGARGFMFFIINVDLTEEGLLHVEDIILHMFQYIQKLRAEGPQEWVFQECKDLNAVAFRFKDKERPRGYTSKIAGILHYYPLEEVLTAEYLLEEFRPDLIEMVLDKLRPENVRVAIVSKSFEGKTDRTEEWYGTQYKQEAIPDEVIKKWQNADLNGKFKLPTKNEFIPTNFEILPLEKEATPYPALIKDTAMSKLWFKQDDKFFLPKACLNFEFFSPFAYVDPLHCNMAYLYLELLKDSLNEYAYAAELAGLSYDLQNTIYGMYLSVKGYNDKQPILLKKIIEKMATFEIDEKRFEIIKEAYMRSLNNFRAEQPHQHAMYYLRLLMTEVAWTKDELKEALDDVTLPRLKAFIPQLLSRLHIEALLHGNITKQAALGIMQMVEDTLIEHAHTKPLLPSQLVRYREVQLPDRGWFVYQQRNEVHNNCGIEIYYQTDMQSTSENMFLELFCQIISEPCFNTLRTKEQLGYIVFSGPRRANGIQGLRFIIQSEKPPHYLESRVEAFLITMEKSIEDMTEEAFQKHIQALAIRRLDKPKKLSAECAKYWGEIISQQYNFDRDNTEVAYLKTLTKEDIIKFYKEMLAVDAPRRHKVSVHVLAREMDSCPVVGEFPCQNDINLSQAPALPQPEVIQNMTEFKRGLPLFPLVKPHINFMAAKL
The assay is described as follows: cellular IDE activation of Abeta substrate cleavage – fluorescence polarization, HEK cells, dose response (AID 588439). The class given is functional, cell-based.

The target in assay [26] is T1, Insulin-degrading enzyme. The assay is described as follows: recombinant IDE activation, cell-free – biochemical, fluorescence polarization, counter-screen for IDE activator project, dose response (AID 588681).
Assay [27] relates to HEK293. The assay is described as follows: membrane integrity loss in HEK cells – cell-based, fluorescence, cytotoxicity control for IDE activator project, dose response (AID 588440).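 Also: cytotoxicity by LDH release measuring loss of membrane integrity.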 The class given is functional. Conditions: Homo sapiens.
Assay [28] has as its target Ras and Rab interactor 1/Tyrosine-protein kinase ABL1 (Homo sapiens, UniProt P00519+Q13671). Format: functional.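 Also: biochemical TR-FRET dose-response test measuring inhibition of binding between Rin1 and Abl proteins.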

Sequence of Ras and Rab interactor 1/Tyrosine-protein kinase ABL1 (P00519 whole entry): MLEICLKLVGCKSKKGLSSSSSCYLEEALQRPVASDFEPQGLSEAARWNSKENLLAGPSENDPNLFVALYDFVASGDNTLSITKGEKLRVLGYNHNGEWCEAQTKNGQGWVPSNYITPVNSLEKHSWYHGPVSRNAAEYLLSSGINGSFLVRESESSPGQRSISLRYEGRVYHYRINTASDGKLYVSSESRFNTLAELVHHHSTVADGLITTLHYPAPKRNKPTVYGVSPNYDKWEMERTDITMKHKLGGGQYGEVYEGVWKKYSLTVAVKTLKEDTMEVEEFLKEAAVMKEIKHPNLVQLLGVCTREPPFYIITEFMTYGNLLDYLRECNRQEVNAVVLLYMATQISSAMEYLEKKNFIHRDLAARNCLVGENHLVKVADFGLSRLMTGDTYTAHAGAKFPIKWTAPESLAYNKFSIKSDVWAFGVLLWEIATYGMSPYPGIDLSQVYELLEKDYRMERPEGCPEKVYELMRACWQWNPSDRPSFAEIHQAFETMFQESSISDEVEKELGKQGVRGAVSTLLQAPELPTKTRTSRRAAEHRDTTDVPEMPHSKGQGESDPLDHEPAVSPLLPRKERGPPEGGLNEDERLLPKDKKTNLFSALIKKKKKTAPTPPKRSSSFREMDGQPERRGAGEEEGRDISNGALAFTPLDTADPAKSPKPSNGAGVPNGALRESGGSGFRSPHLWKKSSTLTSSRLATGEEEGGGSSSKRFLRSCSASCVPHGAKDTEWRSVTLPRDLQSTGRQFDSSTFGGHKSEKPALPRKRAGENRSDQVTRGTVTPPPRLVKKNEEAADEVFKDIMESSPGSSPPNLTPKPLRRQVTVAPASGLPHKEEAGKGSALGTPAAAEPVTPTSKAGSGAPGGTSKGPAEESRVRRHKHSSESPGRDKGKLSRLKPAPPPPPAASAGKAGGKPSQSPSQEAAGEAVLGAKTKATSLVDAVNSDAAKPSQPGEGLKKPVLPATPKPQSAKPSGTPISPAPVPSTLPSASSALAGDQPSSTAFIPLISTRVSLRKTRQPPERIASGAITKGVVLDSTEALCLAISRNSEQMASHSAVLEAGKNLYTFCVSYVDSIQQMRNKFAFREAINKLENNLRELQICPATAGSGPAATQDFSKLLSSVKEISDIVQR
Sequence of Ras and Rab interactor 1/Tyrosine-protein kinase ABL1 (Q13671 whole entry): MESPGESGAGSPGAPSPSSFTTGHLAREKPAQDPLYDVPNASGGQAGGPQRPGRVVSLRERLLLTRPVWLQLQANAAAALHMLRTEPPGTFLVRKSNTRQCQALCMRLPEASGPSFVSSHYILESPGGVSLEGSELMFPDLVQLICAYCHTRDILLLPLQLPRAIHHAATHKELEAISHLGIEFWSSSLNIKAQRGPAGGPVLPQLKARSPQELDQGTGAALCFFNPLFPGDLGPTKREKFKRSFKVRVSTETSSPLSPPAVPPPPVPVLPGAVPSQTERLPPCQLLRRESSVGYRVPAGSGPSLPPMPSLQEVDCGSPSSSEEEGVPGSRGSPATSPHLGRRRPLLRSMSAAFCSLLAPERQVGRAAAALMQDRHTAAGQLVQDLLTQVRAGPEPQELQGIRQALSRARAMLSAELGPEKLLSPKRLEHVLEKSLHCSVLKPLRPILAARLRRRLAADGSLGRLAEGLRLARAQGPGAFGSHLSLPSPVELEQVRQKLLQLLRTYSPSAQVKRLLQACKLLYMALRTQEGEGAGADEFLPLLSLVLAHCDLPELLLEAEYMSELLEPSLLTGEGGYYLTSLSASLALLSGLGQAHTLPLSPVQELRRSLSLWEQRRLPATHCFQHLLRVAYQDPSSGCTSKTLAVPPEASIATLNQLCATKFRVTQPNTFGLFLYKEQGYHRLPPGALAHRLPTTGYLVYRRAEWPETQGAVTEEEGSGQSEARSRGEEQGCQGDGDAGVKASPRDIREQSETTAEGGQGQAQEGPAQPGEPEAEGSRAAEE
Sequence of Paired box protein Pax-8 (Q06710 whole entry): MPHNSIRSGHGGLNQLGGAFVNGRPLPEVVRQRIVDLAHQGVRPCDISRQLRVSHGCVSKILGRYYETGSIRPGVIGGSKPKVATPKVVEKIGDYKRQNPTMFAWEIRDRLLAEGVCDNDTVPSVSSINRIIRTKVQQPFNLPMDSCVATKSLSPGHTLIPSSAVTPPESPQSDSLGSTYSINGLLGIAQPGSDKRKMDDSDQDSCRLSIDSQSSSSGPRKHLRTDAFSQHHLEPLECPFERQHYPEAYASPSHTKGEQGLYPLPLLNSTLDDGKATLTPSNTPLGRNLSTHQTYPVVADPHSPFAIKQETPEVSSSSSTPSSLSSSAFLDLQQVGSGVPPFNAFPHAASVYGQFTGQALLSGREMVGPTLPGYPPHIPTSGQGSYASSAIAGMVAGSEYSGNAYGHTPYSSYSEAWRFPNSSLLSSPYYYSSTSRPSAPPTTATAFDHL
Sequence of Glutathione-S-transferase (Q26513 whole entry): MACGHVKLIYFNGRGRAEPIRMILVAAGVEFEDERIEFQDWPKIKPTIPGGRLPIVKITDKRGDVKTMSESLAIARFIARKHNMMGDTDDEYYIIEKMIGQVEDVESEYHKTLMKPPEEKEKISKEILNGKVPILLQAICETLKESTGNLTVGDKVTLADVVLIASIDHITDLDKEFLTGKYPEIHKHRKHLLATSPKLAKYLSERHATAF
Sequence of Nonstructural protein 1 (Q194T2 whole entry): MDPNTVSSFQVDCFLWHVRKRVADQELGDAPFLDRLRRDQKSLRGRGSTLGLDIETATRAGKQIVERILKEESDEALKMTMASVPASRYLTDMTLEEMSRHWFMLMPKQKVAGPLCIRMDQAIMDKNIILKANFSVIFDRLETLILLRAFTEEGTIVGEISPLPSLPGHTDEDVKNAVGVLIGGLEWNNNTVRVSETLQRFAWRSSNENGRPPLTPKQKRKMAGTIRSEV

Turning to `C[C@H](CO)N1C[C@H](C)[C@@H](CN(C)Cc2ccc(Cl)c(Cl)c2)OCCCC[C@H](C)Oc2ccc(NS(=O)(=O)c3ccc(Cl)cc3)cc2C1=O`, the AC50 – broadly, the concentration giving half of the maximal activity seen – on Paired box protein Pax-8 is 11.5 µM (active); in assay [1], 4.46 µM (active); in assay [2], > 70 µM (inactive).
For `O=C(C[C@@H]1C[C@H]2c3cc(NS(=O)(=O)c4ccc(F)cc4)ccc3O[C@H]2[C@H](CO)O1)NCc1ccc(Cl)cc1`, the AC50 in [3] was 16.1 µM (active); in assay [4], 0.000676 µM (active); at Paired box protein Pax-8 it was 5.93 µM (active); in [5], 28.1 µM (active); in assay [6], 19.8 µM (active); in assay [7], 45.7 µM (active). Besides, the AC50 in assay [8] was 19.1 µM (active); in assay [9], 34.3 µM (active); in [10], 43 µM (active); in assay [2] it was 25.8 µM (active).
As to `FC(F)(F)c1ccccc1CSc1nnc(-c2ccccc2)o1`, the concentration at half-maximal activity (AC50) in [11] was 23.1 µM (active).
For the compound `CC(C)(CO)[C@@H](O)C(=O)NCCC(=O)NCCSSCCNC(=O)CCNC(=O)[C@H](O)C(C)(C)CO`, the IC50 in [12], in [13], in [14], in [15], in assay [16] and in [17] was > 20 µM (inactive) in each case. The IC50 in assay [18] and in assay [19] was > 20 µM (inactive) each time.
Regarding `CC(C)N1C[C@@H](C)[C@H](CN(C)Cc2ccc(Oc3ccccc3)cc2)Oc2c(cccc2N(C)C(=O)c2ccncc2)C1=O`, in assay [20], the half-maximal inhibitory concentration (IC50) – broadly, the concentration that gives 50% inhibition – was 10 µM (inconclusive). Further, the AC50 in [21] and in [22] was 0.262 µM (active) each time.
Turning to `O=C(O)CCCC[C@@H]1SC[C@@H]2NC(=O)N[C@@H]21` [BIOTIN], the concentration for a half-maximal effect (EC50) (commonly the concentration at which the effect is half-maximal) with HEK293 [23] was 2.06 µM (active); at Insulin-degrading enzyme [25], 2.37 µM (active); at Insulin-degrading enzyme [26] it was 2.53 µM (active). In addition, the 50% inhibitory concentration (IC50) in assay [24] is 0.85 µM (active); on Nonstructural protein 1 it was < 0.2 µM (active); in the assay with HEK293 [27], > 89.3 µM (inactive); in assay [28], > 3.73 nM (active) and 529 nM (active).

For the origin of these results see ChEMBL document CHEMBL1201862, “PubChem BioAssay data set” (2004).
